Laboratory results: US11427586B2, “1,2,4-oxadiazole derivatives as liver X receptor agonists” (NOVARTIS AG, priority 2019, dated 2022)
Where two headings read alike, the source gives them in different places.

Key:
SCD1 = assay: Measurement of SCD1 expression in SZ95-SCD1-HiBit cells (HiBiT assay); type: cell-based; details: Homo sapiens, 48 h; for EC50: SCD1 protein production, luminescence, initial dilution 1:3 in DMSO, read-out: HiBit EC50
SZ95 sebocytes = assay: Sentinel Lipid Assay (SLA), desaturation index in SZ95 sebocytes; type: cell-based; details: Homo sapiens, 72 h; for EC50: desaturation index, lowest dose used 4.6 nM, read-out: SLA EC50
Method in brief: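 SZ95 human sebocytes on fibronectin-coated plates, dosed 72 h at 37 °C with 1:3 dilutions from 10 μM; lipids extracted with deuterated triglyceride internal standards and quantified by LC-MS/MS (MRM) as 11 sentinel lipids. Desaturation index from elastic-net coefficients, normalized to DMSO; Amax relative to a reference LXR agonist.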

[1] = normalized Amax based on the reference compound Amax of 100%, read-out: HiBit Normalized Amax
[2] = SZ95-SCD1-HiBit cells, compared to reference compound, read-out: HiBit Amax
[3] = normalized Amax based on the reference compound Amax of 100%, read-out: SLA Normalized Amax
[4] = SZ95 cells, compared to reference compound, read-out: SLA Amax

Structure (SMILES)	Emax (SCD1; [1])	EC50 (SCD1; SZ95-SCD1-HiBit cells)	Emax (SCD1; [2])	Emax (SZ95 sebocytes; [3])	EC50 (SZ95 sebocytes; SZ95 cells)	Emax (SZ95 sebocytes; [4])
CC(C)CS(=O)(=O)c1ccccc1Oc1ccc(-c2noc(CN3C(=O)N(CCN4CCOCC4)C4(CCN(CC5CC5)CC4)C3=O)n2)cc1C(F)(F)F [Compound 27, 8-(cyclopropylmethyl)-3-((3-(4-(2-(isobutylsulfonyl)phenoxy)-3-(trifluoromethyl)phenyl)-1,2,4-oxadiazol-5-yl)methyl)-1-(2-morpholinoethyl)-1,3,8-triazaspiro[4.5]decane-2,4-dione]	89.1%	0.254 nM	84.7%	114%	≤ 4.6 nM	109%
CC(C)CS(=O)(=O)c1ccccc1Oc1ccc(-c2noc(CN3C(=O)N(CCN4CCOCC4)C4(CCN(C(=O)CC5CC5)CC4)C3=O)n2)cc1C(F)(F)F [Compound 28, 8-(2-cyclopropylacetyl)-3-((3-(4-(2-(isobutylsulfonyl)phenoxy)-3-(trifluoromethyl)phenyl)-1,2,4-oxadiazol-5-yl)methyl)-1-(2-morpholinoethyl)-1,3,8-triazaspiro[4.5]decane-2,4-dione]	74.8%	0.697 nM	71.1%	145%	≤ 4.6 nM	139%
CC(C)CS(=O)(=O)c1ccccc1Oc1ccc(-c2noc(CN3C(=O)N(CCN4CCOCC4)C4(CCN(C(=O)c5cncnc5)CC4)C3=O)n2)cc1C(F)(F)F [Compound 29, 3-((3-(4-(2-(isobutylsulfonyl)phenoxy)-3-(trifluoromethyl)phenyl)-1,2,4-oxadiazol-5-yl)methyl)-1-(2-morpholinoethyl)-8-(pyrimidine-5-carbonyl)-1,3,8-triazaspiro[4.5]decane-2,4-dione]	87.7%	0.796 nM	83.4%	135%	≤ 4.6 nM	129%
CC(COc1ccc(-c2noc(CN3C(=O)N(CCN4CCOCC4)C4(CCN(C(=O)c5cncnc5)CC4)C3=O)n2)cc1C(F)(F)F)(C(F)(F)F)C(F)(F)F [Compound 30, 1-(2-morpholinoethyl)-8-(pyrimidine-5-carbonyl)-3-((3-(4-(3,3,3-trifluoro-2-methyl-2-(trifluoromethyl)propoxy)-3-(trifluoromethyl)phenyl)-1,2,4-oxadiazol-5-yl)methyl)-1,3,8-triazaspiro[4.5]decane-2,4-dione]	89.3%	1.04 nM	84.9%	85.5%	34.4 nM	82.1%
CC(COc1ccc(-c2noc(CN3C(=O)N(CCC4CCOCC4)C4(CCN(C(=O)c5cncnc5)CC4)C3=O)n2)cc1C(F)(F)F)(C(F)(F)F)C(F)(F)F [Compound 31, 8-(pyrimidine-5-carbonyl)-1-(2-(tetrahydro-2H-pyran-4-yl)ethyl)-3-((3-(4-(3,3,3-trifluoro-2-methyl-2-(trifluoromethyl)propoxy)-3-(trifluoromethyl)phenyl)-1,2,4-oxadiazol-5-yl)methyl)-1,3,8-triazaspiro[4.5]decane-2,4-dione]	82.3%	0.44 nM	78.3%	100%	≤ 4.6 nM	96.3%
CC(C)CS(=O)(=O)c1ccccc1Oc1ccc(-c2noc(CN3C(=O)N(CCN4CCOCC4)C4(CCN(C(=O)CCN(C)C)CC4)C3=O)n2)cc1C(F)(F)F [Compound 32, 8-(3-(dimethylamino)propanoyl)-3-((3-(4-(2-(isobutylsulfonyl)phenoxy)-3-(trifluoromethyl)phenyl)-1,2,4-oxadiazol-5-yl)methyl)-1-(2-morpholinoethyl)-1,3,8-triazaspiro[4.5]decane-2,4-dione]	84.9%	2.42 nM	80.7%	100%	≤ 4.6 nM	96.2%
CC(C)CS(=O)(=O)c1ccccc1Oc1ccc(-c2noc(CN3C(=O)N(CCN4CCOCC4)C4(CCN(C(=O)C5CCN(C)CC5)CC4)C3=O)n2)cc1C(F)(F)F [Compound 33, 3-((3-(4-(2-(isobutylsulfonyl)phenoxy)-3-(trifluoromethyl)phenyl)-1,2,4-oxadiazol-5-yl)methyl)-8-(1-methylpiperidine-4-carbonyl)-1-(2-morpholinoethyl)-1,3,8-triazaspiro[4.5]decane-2,4-dione]	113%	8.53 nM	107%	121%	≤ 4.6 nM	116%
CC(C)CS(=O)(=O)c1ccccc1Oc1ccc(-c2noc(CN3C(=O)N(CCN4CCOCC4)C4(CCN(C(=O)c5ccncn5)CC4)C3=O)n2)cc1C(F)(F)F [Compound 34, 3-((3-(4-(2-(isobutylsulfonyl)phenoxy)-3-(trifluoromethyl)phenyl)-1,2,4-oxadiazol-5-yl)methyl)-1-(2-morpholinoethyl)-8-(pyrimidine-4-carbonyl)-1,3,8-triazaspiro[4.5]decane-2,4-dione]	85.7%	0.38 nM	81.5%	171%	≤ 4.6 nM	164%
CCCC(=O)N1CCC2(CC1)C(=O)N(Cc1nc(-c3ccc(Oc4ccccc4S(=O)(=O)CC(C)C)c(C(F)(F)F)c3)no1)C(=O)N2CCN1CCOCC1 [Compound 35, 8-butyryl-3-((3-(4-(2-(isobutylsulfonyl)phenoxy)-3-(trifluoromethyl)phenyl)-1,2,4-oxadiazol-5-yl)methyl)-1-(2-morpholinoethyl)-1,3,8-triazaspiro[4.5]decane-2,4-dione]	73.1%	0.616 nM	69.5%	122%	17.2 nM	117%
CC(C)CS(=O)(=O)c1ccccc1Oc1ccc(-c2noc(CN3C(=O)N(CCC4CCOCC4)C4(CCN(C(=O)c5cnccn5)CC4)C3=O)n2)cc1C(F)(F)F [Compound 36, 3-((3-(4-(2-(isobutylsulfonyl)phenoxy)-3-(trifluoromethyl)phenyl)-1,2,4-oxadiazol-5-yl)methyl)-8-(pyrazine-2-carbonyl)-1-(2-(tetrahydro-2H-pyran-4-yl)ethyl)-1,3,8-triazaspiro[4.5]decane-2,4-dione]	81.5%	0.119 nM	77.5%	131%	≤ 4.6 nM	126%
CC(C)CS(=O)(=O)c1ccccc1Oc1ccc(-c2noc(CN3C(=O)N(CCC4CCOCC4)C4(CCN(C(=O)c5cncnc5)CC4)C3=O)n2)cc1C(F)(F)F [Compound 37, 3-((3-(4-(2-(isobutylsulfonyl)phenoxy)-3-(trifluoromethyl)phenyl)-1,2,4-oxadiazol-5-yl)methyl)-8-(pyrimidine-5-carbonyl)-1-(2-(tetrahydro-2H-pyran-4-yl)ethyl)-1,3,8-triazaspiro[4.5]decane-2,4-dione]	91.8%	0.066 nM	87.3%	145%	≤ 4.6 nM	140%
CC1(C)C(=O)N(Cc2nc(-c3ccc(Oc4ccccc4S(=O)(=O)CC4CCOC4)c(C(F)(F)F)c3)no2)C(=O)N1CCN1CCOCC1 (stereo not drawn) [Compound 38, 5,5-dimethyl-1-(2-morpholinoethyl)-3-((3-(4-(2-(((tetrahydrofuran-3-yl)methyl)sulfonyl)phenoxy)-3-(trifluoromethyl)phenyl)-1,2,4-oxadiazol-5-yl)methyl)imidazolidine-2,4-dione]	75.8%	5.26 nM	72.1%	160%	≤ 4.6 nM	154%
